Results: US10689367B2, “Triazole pyridyl compounds as agonists of the APJ receptor” (AMGEN INC., priority 2016, dated 2020)
pEC50: −log10 of the molar value.

biological target: human APJ receptor (Homo sapiens (Human), UniProt P35414); test: [35S]GTPγS binding assay on membranes from CHO cells stably expressing human APJ receptor; assay type: biochemical; settings: membranes of CHO cells stably expressing human APJ receptor, read-out: Activity hAPJ SPA EC50 IP
Outline: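 Agonist EC50 values come from non-linear regression of mean data from several independent runs. Membranes of CHO cells stably expressing human APJ were incubated 90 min at room temperature with [35S]GTPγS in buffer with optimized GDP, MgCl2 and NaCl, then read on a microplate imager.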

human APJ receptor, sequence (P35414 whole entry): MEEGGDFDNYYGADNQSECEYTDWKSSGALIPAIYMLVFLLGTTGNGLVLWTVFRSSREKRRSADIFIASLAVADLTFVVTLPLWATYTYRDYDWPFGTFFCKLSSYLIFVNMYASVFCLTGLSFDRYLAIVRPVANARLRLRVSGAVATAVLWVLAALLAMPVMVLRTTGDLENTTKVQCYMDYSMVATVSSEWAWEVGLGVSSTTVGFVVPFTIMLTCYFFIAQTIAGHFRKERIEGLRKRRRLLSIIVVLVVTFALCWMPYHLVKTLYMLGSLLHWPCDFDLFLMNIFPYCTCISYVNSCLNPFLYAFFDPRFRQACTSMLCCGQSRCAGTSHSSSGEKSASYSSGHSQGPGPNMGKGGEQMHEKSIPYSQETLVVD

| SMILES | pEC50 |
| --- | --- |
| COc1cccc(-c2nnc(NS(=O)(=O)[C@@H](C)[C@H](OC)c3ncc(Cl)cn3)n2[C@H](C)c2cncnc2)n1 (single isomer, unassigned) [Example 336.0, (1R,2S)-1-(5-chloropyrimidin-2-yl)-1-methoxy-N-(5-(6-methoxypyridin-2-yl)-4-((R)-1-(pyrimidin-5-yl)ethyl)-4H-1,2,4-triazol-3-yl)propane-2-sulfonamide or (1R,2S)-1-(5-chloropyrimidin-2-yl)-1-methoxy-N-(5-(6-methoxypyridin-2-yl)-4-((S)-1-(pyrimidin-5-yl)ethyl)-4H-1,2,4-triazol-3-yl)propane-2-sulfonamide] | 7.82 |
| COc1cccc(-c2nnc(NS(=O)(=O)[C@@H](C)[C@H](OC)c3ncc(Cl)cn3)n2[C@H](C)c2cncnc2)n1 (single isomer, unassigned) [Example 337.0, (1R,2S)-1-(5-chloropyrimidin-2-yl)-1-methoxy-N-(5-(6-methoxypyridin-2-yl)-4-((R)-1-(pyrimidin-5-yl)ethyl)-4H-1,2,4-triazol-3-yl)propane-2-sulfonamide or (1R,2S)-1-(5-chloropyrimidin-2-yl)-1-methoxy-N-(5-(6-methoxypyridin-2-yl)-4-((S)-1-(pyrimidin-5-yl)ethyl)-4H-1,2,4-triazol-3-yl)propane-2-sulfonamide] | 8.85 |
| COc1cccc(-c2nnc(NS(=O)(=O)[C@@H](C)[C@H](OC)c3ncc(Cl)cn3)n2[C@H](C)c2cnn(C)c2)n1 (single isomer, unassigned) [Example 338.0, (1R,2S)-1-(5-chloropyrimidin-2-yl)-1-methoxy-N-(5-(6-methoxypyridin-2-yl)-4-((R)-1-(1-methyl-1H-pyrazol-4-yl)ethyl)-4H-1,2,4-triazol-3-yl)propane-2-sulfonamide or (1R,2S)-1-(5-chloropyrimidin-2-yl)-1-methoxy-N-(5-(6-methoxypyridin-2-yl)-4-((S)-1-(1-methyl-1H-pyrazol-4-yl)ethyl)-4H-1,2,4-triazol-3-yl)propane-2-sulfonamide] | 9.25 |
| COc1cccc(-c2nnc(NS(=O)(=O)[C@@H](C)[C@H](OC)c3ncc(Cl)cn3)n2[C@H](C)c2cnn(C)c2)n1 (single isomer, unassigned) [Example 339.0, (1R,2S)-1-(5-chloropyrimidin-2-yl)-1-methoxy-N-(5-(6-methoxypyridin-2-yl)-4-((R)-1-(1-methyl-1H-pyrazol-4-yl)ethyl)-4H-1,2,4-triazol-3-yl)propane-2-sulfonamide or (1R,2S)-1-(5-chloropyrimidin-2-yl)-1-methoxy-N-(5-(6-methoxypyridin-2-yl)-4-((S)-1-(1-methyl-1H-pyrazol-4-yl)ethyl)-4H-1,2,4-triazol-3-yl)propane-2-sulfonamide] | 8.51 |
| COc1cccc(-c2nnc(NS(=O)(=O)[C@@H](C)[C@H](OC)c3ncc(Cl)cn3)n2[C@H](C)c2cc(F)cc(F)c2)n1 (single isomer, unassigned) [Example 340.0, (1R,2S)-1-(5-chloropyrimidin-2-yl)-N-(4-((R)-1-(3,5-difluorophenyl)ethyl)-5-(6-methoxypyridin-2-yl)-4H-1,2,4-triazol-3-yl)-1-methoxypropane-2-sulfonamide or (1R,2S)-1-(5-chloropyrimidin-2-yl)-N-(4-((S)-1-(3,5-difluorophenyl)ethyl)-5-(6-methoxypyridin-2-yl)-4H-1,2,4-triazol-3-yl)-1-methoxypropane-2-sulfonamide] | 9.74 |
| COc1cccc(-c2nnc(NS(=O)(=O)[C@@H](C)[C@H](OC)c3ncc(Cl)cn3)n2[C@H](C)c2cc(F)cc(F)c2)n1 (single isomer, unassigned) [Example 341.0, (1R,2S)-1-(5-chloropyrimidin-2-yl)-N-(4-((R)-1-(3,5-difluorophenyl)ethyl)-5-(6-methoxypyridin-2-yl)-4H-1,2,4-triazol-3-yl)-1-methoxypropane-2-sulfonamide or (1R,2S)-1-(5-chloropyrimidin-2-yl)-N-(4-((S)-1-(3,5-difluorophenyl)ethyl)-5-(6-methoxypyridin-2-yl)-4H-1,2,4-triazol-3-yl)-1-methoxypropane-2-sulfonamide] | 9.89 |
| CC[C@H](c1cc(F)cc(F)c1)n1c(NS(=O)(=O)[C@@H](C)[C@H](OC)c2ncc(Cl)cn2)nnc1-c1cccc(OC)n1 (single isomer, unassigned) [Example 342.0, (1R,2S)-1-(5-chloropyrimidin-2-yl)-N-(4-((R)-1-(3,5-difluorophenyl)propyl)-5-(6-methoxypyridin-2-yl)-4H-1,2,4-triazol-3-yl)-1-methoxypropane-2-sulfonamide or (1R,2S)-1-(5-chloropyrimidin-2-yl)-N-(4-((S)-1-(3,5-difluorophenyl)propyl)-5-(6-methoxypyridin-2-yl)-4H-1,2,4-triazol-3-yl)-1-methoxypropane-2-sulfonamide] | 10.30 |
| CC[C@H](c1cc(F)cc(F)c1)n1c(NS(=O)(=O)[C@@H](C)[C@H](OC)c2ncc(Cl)cn2)nnc1-c1cccc(OC)n1 (single isomer, unassigned) [Example 343.0, (1R,2S)-1-(5-chloropyrimidin-2-yl)-N-(4-((R)-1-(3,5-difluorophenyl)propyl)-5-(6-methoxypyridin-2-yl)-4H-1,2,4-triazol-3-yl)-1-methoxypropane-2-sulfonamide or (1R,2S)-1-(5-chloropyrimidin-2-yl)-N-(4-((S)-1-(3,5-difluorophenyl)propyl)-5-(6-methoxypyridin-2-yl)-4H-1,2,4-triazol-3-yl)-1-methoxypropane-2-sulfonamide] | 10.00 |
| COc1cccc(-c2nnc(NS(=O)(=O)[C@@H](C)[C@H](OC)c3ncc(Cl)cn3)n2[C@H](C)c2cscn2)n1 (single isomer, unassigned) [Example 344.0, (1R,2S)-1-(5-chloropyrimidin-2-yl)-1-methoxy-N-(5-(6-methoxypyridin-2-yl)-4-((S)-1-(thiazol-4-yl)ethyl)-4H-1,2,4-triazol-3-yl)propane-2-sulfonamide or (1R,2S)-1-(5-chloropyrimidin-2-yl)-1-methoxy-N-(5-(6-methoxypyridin-2-yl)-4-((R)-1-(thiazol-4-yl)ethyl)-4H-1,2,4-triazol-3-yl)propane-2-sulfonamide] | 8.15 |
| COc1cccc(-c2nnc(NS(=O)(=O)[C@@H](C)[C@H](OC)c3ncc(Cl)cn3)n2[C@H](C)c2cscn2)n1 (single isomer, unassigned) [Example 345.0, (1R,2S)-1-(5-chloropyrimidin-2-yl)-1-methoxy-N-(5-(6-methoxypyridin-2-yl)-4-((S)-1-(thiazol-4-yl)ethyl)-4H-1,2,4-triazol-3-yl)propane-2-sulfonamide or (1R,2 S)-1-(5-chloropyrimidin-2-yl)-1-methoxy-N-(5-(6-methoxypyridin-2-yl)-4-((R)-1-(thiazol-4-yl)ethyl)-4H-1,2,4-triazol-3-yl)propane-2-sulfonamide] | 8.96 |
